One assay deals with Escherichia coli. Nature of the assay: Tested in vitro for percent inhibition of the growth of Escherichia coli at concentration of 20 uM. In kind it is functional.
Another assay deals with Listeria innocua. In words: Tested in vitro for percent inhibition of the growth of Listeria inocua at concentration of 20 uM. In kind it is functional.

Turning to `CCC(=O)NCCn1ccc(=O)c(O)c1C`, the Growth response with Escherichia coli is recorded as 0%; in the assay on Listeria innocua, 14%.

Take `C=CC(=O)NCCn1ccc(=O)c(O)c1C`: the results for the Growth response with Escherichia coli and in the assay with Listeria innocua were 0% and 13%, respectively.

The values are drawn from ChEMBL document CHEMBL1127700, “Iron(III)-chelating resins. IX. Antibacterial activity of a water-insoluble iron(III)-chelating resin” (1994).
